“And” between values parts separate entries of the source, which are not always exact repeats. Equal values may be shown once. Toxic doses and inconclusive results are not listed.
Test system: B6C3F1 mice, B16 melanoma ip, median survival T/C
Assay: NCI In Vivo Anticancer Drug Screen. Data for tumor model B16 Melanoma (intraperitoneal) in B6C3F1 mice
Details: endpoint: median survival time, schedule: Q01DX009 (ip), higher = longer survival
Summary of the method: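 Mice bearing transplanted tumor were dosed with compound or vehicle, and survival was recorded. Activity is expressed as the treated-group measurement (T) divided by the vehicle control measurement (C).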

[1] = dose: 100.0 mg/kg/injection, vehicle: suspension in saline
[2] = dose: 25.0 mg/kg/injection, vehicle: Klucel (hydroxypropylcellulose) (HPC)
[3] = dose: 50.0 mg/kg/injection, vehicle: Klucel (hydroxypropylcellulose) (HPC)
[4] = dose: 100.0 mg/kg/injection, vehicle: Klucel (hydroxypropylcellulose) (HPC)
[5] = dose: 3.13 mg/kg/injection, vehicle: saline with Tween-80
[6] = dose: 6.25 mg/kg/injection, vehicle: saline with Tween-80
[7] = dose: 12.5 mg/kg/injection, vehicle: saline with Tween-80
[8] = dose: 25.0 mg/kg/injection, vehicle: saline with Tween-80
[9] = dose: 50.0 mg/kg/injection, vehicle: saline with Tween-80
[10] = dose: 100.0 mg/kg/injection, vehicle: saline with Tween-80
[11] = dose: 200.0 mg/kg/injection, vehicle: saline with Tween-80
[12] = dose: 400.0 mg/kg/injection, vehicle: saline with Tween-80
[13] = dose: 12.5 mg/kg/injection, vehicle: Klucel (hydroxypropylcellulose) (HPC)
[14] = dose: 25.0 mg/kg/injection, vehicle: saline
[15] = dose: 50.0 mg/kg/injection, vehicle: saline
[16] = dose: 100.0 mg/kg/injection, vehicle: saline
[17] = dose: 200.0 mg/kg/injection, vehicle: saline
[18] = dose: 400.0 mg/kg/injection, vehicle: saline
[19] = dose: 12.5 mg/kg/injection, vehicle: saline

In the case of COc1cc(-c2ccc(Nc3ccccc3C(=O)O)c(OC)c2)ccc1Nc1ccccc1C(=O)O, the T/C [1] is reported as 94 % of control, the T/C (dose: 200.0 mg/kg/injection, vehicle: suspension in saline) is reported as 99 % of control and the T/C (dose: 400.0 mg/kg/injection, vehicle: suspension in saline) is reported as 98 % of control.

Cn1cc(C2NC(=O)c3ccccc3N2)c2ccccc21 (stereo unspecified) was tested, and the T/C [2] was 109 % of control and 96 % of control, the T/C [3] was 115 % of control and 106 % of control and the T/C [4] was 123 % of control.

With Ic1ccc2c(c1)N(c1ccccc1)c1cc(N=c3ccc4nc5ccc(I)cc5n(-c5ccccc5)c-4c3)ccc1N2 the T/C [4] was 91 % of control, the T/C (dose: 200.0 mg/kg/injection, vehicle: Klucel (hydroxypropylcellulose) (HPC)) was 94 % of control and the T/C (dose: 400.0 mg/kg/injection, vehicle: Klucel (hydroxypropylcellulose) (HPC)) was 91 % of control.

In the case of O=C(Nc1cccc2c(OC(=O)C(Cl)Cl)c(N=Nc3ccc(S(=O)(=O)Nc4nccs4)cc3)cc(N=Nc3ccc(S(=O)(=O)Nc4nccs4)cc3)c12)C(Cl)Cl (tested in a mixture with another compound), the T/C (dose: 3.12 mg/kg/injection, vehicle: saline with Tween-80) is reported as 104 % of control, the T/C [5] is reported as 94 % of control and the T/C [6] is reported as 115 % of control and 119 % of control and 87 % of control. The T/C [7] was 114 % of control and 100 % of control and 104 % of control, the T/C [8] was 109 % of control and the T/C [9] was 108 % of control. For the same compound, the T/C [10] was 95 % of control.

With O=C(c1cccnc1)c1cc(-c2ccccn2)c(=O)n2ccccc12 the T/C [8] was 96 % of control, the T/C [9] was 98 % of control and the T/C [10] was 89 % of control.

With Cn1ccc(=Nc2ccc(NC(=O)c3ccc(N=c4ccn(C)c5ccc([N+](=O)[O-])cc45)cc3[N+](=O)[O-])cc2)cc1 the T/C [7] was 105 % of control, the T/C [8] was 93 % of control and the T/C [9] was 91 % of control. For the same compound, the T/C [10] was 94 % of control, the T/C [11] was 96 % of control and the T/C [12] was 96 % of control.

c1ccc(-c2cc3cc4ccccc4cn3c2)cc1 was tested, and the T/C [9] was 110 % of control, the T/C [10] was 118 % of control and the T/C [11] was 116 % of control. The T/C [12] was 105 % of control and the T/C (dose: 800.0 mg/kg/injection, vehicle: saline with Tween-80) was 108 % of control.

With COC(=O)C(F)C(Br)C(=O)OC (stereo unspecified) the T/C [5] was 98 % of control, the T/C [6] was 91 % of control and the T/C [7] was 93 % of control. For the same compound, the T/C [8] was 93 % of control and the T/C [9] was 90 % of control.

With COC(COC(=O)N1CCN(C=O)CC1)C1=C(N2CC2)C(=O)C(C)=C(N2CC2)C1=O (stereo unspecified) the T/C (dose: 1.5 mg/kg/injection, vehicle: saline) was 160 % of control and 194 % of control, the T/C (dose: 3.0 mg/kg/injection, vehicle: saline) was 173 % of control and 234 % of control and the T/C (dose: 6.0 mg/kg/injection, vehicle: saline) was 254 % of control.

In the case of CC(=O)NC(CCc1ccc(Cl)c(Cl)c1)c1cccc(O)c(=O)c1 (stereo unspecified), the T/C (dose: 3.0 mg/kg/injection, vehicle: Klucel (hydroxypropylcellulose) (HPC)) is reported as 93 % of control, the T/C (dose: 6.0 mg/kg/injection, vehicle: Klucel (hydroxypropylcellulose) (HPC)) is reported as 101 % of control and the T/C [13] is reported as 101 % of control. For the same compound, the T/C [2] was 105 % of control and the T/C [3] was 105 % of control.

In the case of CCN(CC)c1ccc(N=Nc2ccc(C)cc2)cc1, the T/C [10] is reported as 96 % of control, the T/C [11] is reported as 93 % of control and the T/C [12] is reported as 96 % of control.

With O=C(Nc1ccccc1C(=O)O)c1cc([N+](=O)[O-])cc([N+](=O)[O-])c1 the T/C [7] was 92 % of control, the T/C [8] was 100 % of control and the T/C [9] was 97 % of control. For the same compound, the T/C [10] was 96 % of control.

For CCCCCCCC1C(=O)OC2CC3C(C)=CC(=O)C(O)C3(C)C3C4(O)OCC23C1C(C)C4O (stereo unspecified), the T/C (dose: 1.25 mg/kg/injection, vehicle: Klucel (hydroxypropylcellulose) (HPC)) was 156 % of control, the T/C (dose: 2.5 mg/kg/injection, vehicle: Klucel (hydroxypropylcellulose) (HPC)) was 110 % of control and 91 % of control and the T/C (dose: 5.0 mg/kg/injection, vehicle: Klucel (hydroxypropylcellulose) (HPC)) was 118 % of control and 97 % of control. For the same compound, the T/C (dose: 10.0 mg/kg/injection, vehicle: Klucel (hydroxypropylcellulose) (HPC)) was 114 % of control and 250 % of control and the T/C (dose: 20.0 mg/kg/injection, vehicle: Klucel (hydroxypropylcellulose) (HPC)) was 162 % of control.

In the case of Cc1c2cc[n+](C)cc2c(C)c2c1[nH]c1ccc(O)cc12, the T/C (dose: 0.12 mg/kg/injection, vehicle: water) is reported as 107 % of control, the T/C (dose: 0.13 mg/kg/injection, vehicle: water) is reported as 117 % of control and the T/C (dose: 1.25 mg/kg/injection, vehicle: saline) is reported as 123 % of control. The T/C (dose: 2.5 mg/kg/injection, vehicle: saline) was 116 % of control.

CCCC(NC(=O)CN)C(=O)O (stereo unspecified) was tested, and the T/C [14] was 108 % of control, the T/C [15] was 100 % of control and the T/C [16] was 99 % of control. For the same compound, the T/C [17] was 94 % of control and the T/C [18] was 108 % of control.

With COc1ccccc1N=Nc1cc(S(=O)(=O)O)c2ccccc2c1O the T/C [19] was 95 % of control, the T/C [14] was 92 % of control and the T/C [15] was 98 % of control. For the same compound, the T/C [11] was 87 % of control.

For Cc1c(N)nc(C(CC(N)=O)NCC(N)C(N)=O)nc1C(=O)NC(C(=O)NC(C)C(O)CC(=O)NC(C(=O)NC(OC1OC(C)C(N)C(O)C1O)C(O)c1nc(-c2nc(C(=O)NCCCC(N)CC(=O)NCCCNCCCCN)cs2)cs1)C(C)O)C(OC1OC(CO)C(O)C(O)C1OC1OC(CO)C(O)C(OC(N)=O)C1O)c1cnc[nH]1 (stereo unspecified), the T/C (dose: 0.5 mg/kg/injection, vehicle: saline) was 120 % of control.

In the case of Nc1n[n+](-c2ccccc2)no1, the T/C (dose: 3.12 mg/kg/injection, vehicle: water) is reported as 98 % of control, the T/C (dose: 6.25 mg/kg/injection, vehicle: water) is reported as 107 % of control and the T/C (dose: 12.5 mg/kg/injection, vehicle: water) is reported as 118 % of control.

With Cn1c2c(c3ccccc3c1=O)C(=O)c1ccccc1-2 the T/C [5] was 114 % of control, the T/C [6] was 105 % of control and the T/C [7] was 98 % of control and 101 % of control. For the same compound, the T/C [8] was 104 % of control, the T/C [9] was 96 % of control and the T/C [10] was 102 % of control. The T/C [11] was 94 % of control and the T/C [12] was 88 % of control.

Cn1c(N)c(C(=O)/C=C/c2ccccc2)c(=O)n(C)c1=O was tested, and the T/C (dose: 1.56 mg/kg/injection, vehicle: Klucel (hydroxypropylcellulose) (HPC)) was 101 % of control, the T/C (dose: 3.12 mg/kg/injection, vehicle: Klucel (hydroxypropylcellulose) (HPC)) was 107 % of control and the T/C (dose: 6.25 mg/kg/injection, vehicle: Klucel (hydroxypropylcellulose) (HPC)) was 106 % of control. The T/C [13] was 104 % of control, the T/C [2] was 105 % of control and the T/C [3] was 116 % of control.

With O=Cc1ccc(O)c(O)c1 the T/C [6] was 100 % of control, the T/C [7] was 87 % of control and the T/C [19] was 97 % of control. The T/C [8] was 94 % of control and 97 % of control, the T/C [14] was 99 % of control and the T/C (dose: 25.0 mg/kg/injection, vehicle: water) was 112 % of control and 100 % of control. For the same compound, the T/C [9] was 93 % of control, the T/C [15] was 89 % of control and the T/C (dose: 50.0 mg/kg/injection, vehicle: water) was 112 % of control and 90 % of control. For the same compound, the T/C [10] was 89 % of control, the T/C [16] was 96 % of control and the T/C (dose: 100.0 mg/kg/injection, vehicle: water) was 95 % of control and 96 % of control. For the same compound, the T/C [11] was 89 % of control, the T/C [17] was 95 % of control and the T/C [12] was 92 % of control. For the same compound, the T/C [18] was 104 % of control.

With C/C(=N/NC(N)=S)c1ccc2ccccc2c1 the T/C [6] was 106 % of control, the T/C [7] was 108 % of control and the T/C [8] was 108 % of control.

For [O-][n+]1c(CN2CCCCC2)nc2cccc3c2c1-c1ccccc1-3, the T/C [7] was 98 % of control, the T/C [8] was 88 % of control and the T/C [9] was 102 % of control. The T/C [10] was 91 % of control and the T/C [12] was 103 % of control.

In the case of COc1cc(C2c3cc4c(cc3[C@@H](OC3OC5CO[C@@H](C)OC5C(O)C3O)[C@H]3COC(=O)C23)OCO4)cc(OC)c1OC (stereo partly specified), the T/C (dose: 21.6 mg/kg/injection, vehicle: suspension in saline) is reported as 120 % of control, the T/C [14] is reported as 150 % of control and the T/C [15] is reported as 160 % of control. For the same compound, the T/C (dose: 60.0 mg/kg/injection, vehicle: suspension in saline) was 162 % of control, the T/C [16] was 193 % of control and the T/C [1] was 183 % of control.

For CC(=O)Nc1ccc(C(=O)C=O)cc1, the T/C [6] was 101 % of control and 103 % of control, the T/C [7] was 116 % of control and 106 % of control and the T/C [8] was 112 % of control and 101 % of control. The T/C [9] was 112 % of control and 115 % of control and the T/C [10] was 102 % of control and 103 % of control.

— PubChem BioAssay AID200 (DTP/NCI, 2004)
